# Experimental data as given in US20110123530A1, “COMPOSITIONS AND METHODS FOR TREATING AND DIAGNOSING ASTHMA” (priority 2008, published 2011).
# Key:
# subjects with asthma = test: Randomized controlled trial of inhaled fluticasone or placebo: FEV1 by spirometry; type: in vivo, human; conditions: for Improvement in FEV1 as compared to subjects treated with placebo: inhaled fluticasone, 4 and 8 weeks; for ΔFEV1 with fluticasone at 4 weeks / ΔFEV1 with fluticasone 8 weeks: asthma, inhaled fluticasone 500 μg twice daily, mean ± SD
# Method: “Forced expiratory volume (FEV1)” refers to a standard test that measures the volume of air expelled in the first second of a forced expiration. […] To perform spirometry, a person inhales deeply, closes the mouth tightly around the tube and then exhales through the tubing while measurements are taken. The volume of air exhaled, and the length of time each breath takes is recorded and analyzed. Spirometry results are expressed as a percentage. Examples of normal spirometry results include a FEV1 of 75 percent of vital capacity after one second. An example of abnormal spirometry results include a reading of less than 80 percent of the normal predicted value. An abnormal result usually indicates the presence of some degree of obstructive lung disease such as asthma, emphysema or chronic bronchitis, or restrictive lung disease such as pulmonary fibrosis. For example, FEV1 values (percentage of predicted) can be used to classify the obstruction that may occur with asthma and other obstructive lung diseases like emphysema or chronic bronchitis: FEV1 […] to 79 percent predicted=mild obstruction, FEV1 40 percent to 59 percent predicted=moderate obstruction, and FEV1 less than 40 percent predicted=severe obstruction. Thirty-two of the subjects with asthma had also been enrolled in a double-blind randomized controlled clinical trial of inhaled fluticasone (500 μg, twice daily, N=19) or matched placebo (N=13) (ClinicalTrials.gov Identifier: NCT00187499). The trial was designed to determine the effects of inhaled steroid (fluticasone) on airway gene expression and to relate gene expression changes to improvements in lung function. The asthma subjects in the clinical trial had undergone baseline bronchoscopy and had been randomized to receive study medication before undergoing repeat bronchoscopy one week later after starting study drug. Asthma subjects continued study medication for a total of 8 weeks. Healthy control subjects and smokers were enrolled in one of three cross-sectional studies, which comprised two visits each, the first for characterization and the second for bronchoscopy 1 week later. Thirty-five subjects had adequate baseline bronchoscopy, and 32 had RNA available from epithelial brushings at both bronchoscopies. Lung function was measured (by spirometry) after 4 weeks and 8 weeks on study medication, and a final spirometry was completed after a one week run-out. Methods for bronchoscopy, epithelial brushing, bronchoalveaolar lavage, spirometry, and sample handling were identical across all studies. Bronchoalveolar lavage (BAL) was performed by instilling 4 aliquots of 50 ml of sterile saline into either the lingula or right middle lobe, with recovery by suction. Cell counts were performed using a hemocytometer and Turks solution (1% glacial acetic acid and 0.01% gentian violet in distilled H2O). Then BAL cell differentials were performed on cytocentrifuged preparations using the Shandon Kwik-Diff stain kit (Thermo Fisher Scientific, Waltham Mass.). Thirty-two of the subjects with asthma were also enrolled in a double-blind randomized controlled clinical trial of inhaled fluticasone (500 mcg BID) or matched placebo. In addition to the inclusion criteria above, these subjects were also required to have either asthma symptoms on 2 or more days per week, or β-agonist use on 2 or more days per week, or FEV1<85% predicted. Subjects in the clinical trial underwent a baseline visit and baseline bronchoscopy as described above, were randomized to receive study medication and underwent repeat bronchoscopy one week later. Then, they continued study medication for a total of 8 weeks with scheduled re-assessment of spirometry and methacholine challenge testing. […]
# [1] = system: IL-4/13 signature genes in bronchial airway epithelium; test: Microarray analysis of bronchial epithelial brushings at baseline and after one week of ICS treatment; type: in vivo, human
# Text: (A) Periostin expression; (B) PRR4 expression; (C) RUNX2 expression.
# We studied biological samples stored in the Airway Tissue Bank at the University of California, San Francisco (UCSF) that had been collected during bronchoscopy performed for research purposes in healthy and asthmatic volunteers. Research bronchoscopy had included collection of epithelial brushings, bronchoalveolar lavage (BAL) and bronchial biopsies using specific methods previously described. BAL cell counts and differentials had been performed and databased, and macrophages had been sorted from BAL fluid using flow cytometry. Four to six bronchial biopsies had been obtained from 2nd-through 5th-order carinae (contralateral to the brushing site), formalin-fixed, and then paraffin-embedded in isotropic uniform random orientation to enable quantitative measures of inflammation and remodeling using methods of design-based stereology. An additional 2 bronchial biopsies had been homogenized and processed for RNA using the Qiagen RNeasy minikit (Qiagen Inc., Valencia, Calif.). RNA extracted from epithelial brushings, homogenates of bronchial biopsies, and lavage macrophages had been quality assured and aliquoted for future microrray- and PCR-based gene profiling. All research bronchoscopy studies had been approved by the UCSF Committee on Human Research (CHR), written informed consent had been obtained from all subjects, and all studies had been performed in accordance with the principles expressed in the Declaration of Helsinki The Airway Tissue Bank procedures were also reviewed and approved by UCSF's CHR. Samples of epithelial brushings and macrophages from this tissue bank have been used in previously reported studies. Most recently, microarray analyses of differentially expressed genes in epithelial brushings in asthmatic subjects have been reported by us.
# Thirty-two of the subjects with asthma had also been enrolled in a double-blind randomized controlled clinical trial of inhaled fluticasone (500 μg, twice daily, N=19) or matched placebo (N=13) (ClinicalTrials.gov Identifier: NCT00187499). The trial was designed to determine the effects of inhaled steroid (fluticasone) on airway gene expression and to relate gene expression changes to improvements in lung function. The asthma subjects in the clinical trial had undergone baseline bronchoscopy and had been randomized to receive study medication before undergoing repeat bronchoscopy one week later after starting study drug. Asthma subjects continued study medication for a total of 8 weeks. Healthy control subjects and smokers were enrolled in one of three cross-sectional studies, which comprised two visits each, the first for characterization and the second for bronchoscopy 1 week later. Thirty-five subjects had adequate baseline bronchoscopy, and 32 had RNA available from epithelial brushings at both bronchoscopies. Lung function was measured (by spirometry) after 4 weeks and 8 weeks on study medication, and a final spirometry was completed after a one week run-out. […]
# Microarray data from mild-moderate non-smoking asthma patients and healthy non-smoking subjects were obtained from a previous study as described. […] Microarray data was analysed in the present study to determine whether genes were differentially regulated within the asthmatic group. Also, the microarray data was analyzed to determine whether other genes were co-regulated with top asthma-related, IL-13 induced genes. […]
# [2] = 19 subjects, one week of ICS treatment, vast majority of genes
# [3] = individual subjects after one week of ICS treatment
smiles,measurement,setting,value
"CCC(=O)O[C@]1(C(=O)SCF)[C@H](C)C[C@H]2[C@@H]3C[C@H](F)C4=CC(=O)C=C[C@]4(C)[C@@]3(F)[C@@H](O)C[C@@]21C [fluticasone, fluticasone propionate]",Improvement in FEV1 as compared to subjects treated with placebo,subjects with asthma; IL-13 high asthma subphenotype,significant improvements in FEV1
same,Improvements in FEV1 after a one week run out period off drug,"subjects with asthma; IL-13 high group, week 9",lost
same,Improvement in FEV1 as compared to subjects treated with placebo,subjects with asthma; IL-13 low asthma subphenotype,did not
same,ΔFEV1 with fluticasone at 4 weeks,subjects with asthma; IL13 Signature Low,0.03 ± 0.12 L
same,ΔFEV1 with fluticasone 8 weeks,subjects with asthma; IL13 Signature Low,0.04 ± 0.12 L
same,ΔFEV1 with fluticasone at 4 weeks,subjects with asthma; IL-13 Signature High,0.35 ± 0.2 L
same,ΔFEV1 with fluticasone 8 weeks,subjects with asthma; IL-13 Signature High,0.25 ± 0.23 L
same,Expression of IL-4/13 signature genes (Table 2) in asthmatic bronchial airway epithelium,[1]; [2],significantly downregulated
same,Expression of IL-13 signature genes (Table 9) in asthmatic bronchial airway epithelium,[1]; [2],significantly downregulated
same,PRR4 expression in bronchial epithelial brushings,[1]; [3],not substantially downregulated
same,RUNX2 expression in bronchial epithelial brushings,[1]; [3],not substantially downregulated
same,"Hierarchical clustering by periostin, CLCA1 and serpinB2 expression in bronchial epithelium","[1]; subjects with IL-13 high asthma at baseline, after one week of fluticasone treatment",clustered with subjects who were IL-13 low at baseline
